Source: the supplement of paper PMC7840683
± gives the standard deviation of the averaged measurements.

Tested on: HepaRG
Assay: LDH release cytotoxicity, % of total lysis control; higher = more cytotoxic
Conditions: 48 h
In short: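 The CytoTox-ONE kit was used to read LDH in 50 µL spent medium as resorufin fluorescence on a Tecan Safire, with 0.1% Triton X added to total lysis wells. Beforehand, single-lot HepaRG cells on collagen I-coated 96-well plates had been exposed in duplicate for 48 h to eight-point half-log series (top 100 µM) in serum-free induction medium containing 0.5% DMSO. Percent cytotoxicity was normalized against on-plate vehicle and total lysis controls and averaged over duplicates.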

Sc1nc2ccccc2s1 [2-Mercaptobenzothiazole]
Conditions | LDH release cytotoxicity [%]
0.03162 µM | -0.515 ± 0.59
0.1 µM | 0.0327 ± 0.27
0.3162278 µM | -0.565 ± 1.2
1 µM | -0.708 ± 0.47
3.16228 µM | 0.4 ± 0.3
10 µM | 0.658 ± 0.27
31.6228 µM | 1.05 ± 0.11
100 µM | 3.61 ± 0.18

CN(C)NC(=O)CCC(=O)O [Daminozide]
Conditions | LDH release cytotoxicity [%]
0.03162 µM | -1.88 ± 0.43
0.1 µM | -1.67 ± 0.13
0.3162278 µM | -1.27 ± 0.85
1 µM | -0.212 ± 2.1
3.16228 µM | -1.11 ± 0.04
10 µM | -0.0868 ± 1
31.6228 µM | 0.553 ± 0.48
100 µM | 1.58 ± 0.84

CC12CCC3C(CCC4=CC(=O)CCC43C)C1CCC2=O (centres undefined) [4-Androstene-3,17-dione]
Conditions | LDH release cytotoxicity [%]
0.03162 µM | -0.88 ± 1.8
0.1 µM | -1.74 ± 1.8
0.3162278 µM | -3.47 ± 0.78
1 µM | -2.45 ± 0.041
3.16228 µM | -1.84 ± 0.94
10 µM | -1.3 ± 1.1
31.6228 µM | -0.324 ± 1.7
100 µM | 37.8 ± 21

c1ccc2c(c1)Cc1ccccc1-2 [Fluorene]
Conditions | LDH release cytotoxicity [%]
0.03162 µM | -1.56 ± 0.24
0.1 µM | -1 ± 0.37
0.3162278 µM | -0.941 ± 0.29
1 µM | -0.74 ± 0.44
3.16228 µM | -0.5867 ± 0.0032
10 µM | -1.05 ± 0.38
31.6228 µM | -0.324 ± 0.11
100 µM | -0.2 ± 0.14

CC(C)(C)C(=O)C(Oc1ccc(Cl)cc1)n1cncn1 (centres undefined) [Triadimefon]
Conditions | LDH release cytotoxicity [%]
0.031939 µM | -0.92 ± 0.21
0.101 µM | -0.0413 ± 0.61
0.31939 µM | -0.707 ± 0.2
1.01 µM | -0.437 ± 0.008
3.1939004 µM | 0.192 ± 0.53
10.1 µM | -0.0819 ± 0.64
31.939 µM | 0.1 ± 0.59
101 µM | 0.544 ± 0.74

CCCCC(CC)COC(=O)CCCCCCCC(=O)OCC(CC)CCCC (centres undefined) [Bis(2-ethylhexyl) nonanedioate]
Conditions | LDH release cytotoxicity [%]
0.03162 µM | -1.88 ± 0.055
0.1 µM | -2.868 ± 0.0068
0.3162278 µM | -2.85 ± 0.81
1 µM | -3 ± 0.21
3.16228 µM | -2.9 ± 0.15
10 µM | -2.46 ± 0.2
31.6228 µM | -2.95 ± 0.69
100 µM | -1.1 ± 0.36

COCC(C)O (centres undefined) [1-Methoxy-2-propanol]
Conditions | LDH release cytotoxicity [%]
0.03162 µM | -0.68 ± 0.076
0.1 µM | -1.18 ± 1.1
0.3162278 µM | -1.53 ± 0.67
1 µM | -1.81 ± 0.6
3.16228 µM | -1.09 ± 0.06
10 µM | -0.197 ± 0.52
31.6228 µM | -0.477 ± 0.073
100 µM | 0.469 ± 0.036

Oc1ccc2c(c1)OCC(N1CCC(O)(c3ccc(F)cc3)CC1)C2O (centres undefined)
Conditions | LDH release cytotoxicity [%]
0.01581 µM | -1 ± 0.72
0.05 µM | 0.886 ± 1.8
0.1581139 µM | 0.0464 ± 0.5
0.5 µM | 0.111 ± 0.36
1.5811388 µM | 0.298 ± 0.66
5 µM | 0.5713 ± 0.0015
15.8114 µM | 1.05 ± 0.36
50 µM | 0.322 ± 0.4

CC(Oc1ccc(Cl)cc1Cl)C(=O)O (centres undefined) [Dichlorprop]
Conditions | LDH release cytotoxicity [%]
0.03162 µM | -0.461 ± 0.19
0.1 µM | -0.49 ± 0.4
0.3162278 µM | -0.517 ± 1.3
1 µM | 0.354 ± 0.43
3.16228 µM | 0.35 ± 0.52
10 µM | 0.358 ± 0.17
31.6228 µM | 0.57 ± 0.15
100 µM | 1.75 ± 0.062

CCc1nc(N)nc(N)c1-c1ccc(Cl)cc1 [Pyrimethamine]
Conditions | LDH release cytotoxicity [%]
0.03162 µM | -0.622 ± 0.53
0.1 µM | -0.806 ± 0.47
0.3162278 µM | 0.238 ± 0.62
1 µM | 0.679 ± 0.29
3.16228 µM | 1.89 ± 0.15
10 µM | 4.04 ± 0.17
31.6228 µM | 2.08 ± 0.49
100 µM | 14.2 ± 0.59

Nn1cnnc1 [4-Amino-1,2,4-triazole]
Conditions | LDH release cytotoxicity [%]
0.0320971 µM | -2.94 ± 0.43
0.1015 µM | -2.79 ± 0.045
0.320971 µM | -3.1 ± 0.21
1.015 µM | -3.38 ± 1.2
3.2097118 µM | -2.7 ± 0.23
10.15 µM | -3.19 ± 0.35
32.0971 µM | -3.08 ± 0.13
101.5 µM | 0.447 ± 1.1

CCOP(=S)(OCC)Oc1ccc([N+](=O)[O-])cc1 [Parathion]
Conditions | LDH release cytotoxicity [%]
0.03162 µM | -1.76 ± 1.2
0.1 µM | -2.78 ± 0.71
0.3162278 µM | -2.35 ± 0.15
1 µM | -2.92 ± 0.81
3.16228 µM | -3.21 ± 0.57
10 µM | -2.39 ± 0.84
31.6228 µM | -1.78 ± 1.4
100 µM | 6.21 ± 0.097

O=C(c1ccccc1)C1CCCCC1 [Cyclohexylphenylketone]
Conditions | LDH release cytotoxicity [%]
0.03162 µM | -1.79 ± 0.41
0.1 µM | -2.63 ± 2.5
0.3162278 µM | -0.957 ± 0.23
1 µM | -1.4 ± 1
3.16228 µM | -1.03 ± 1
10 µM | -0.851 ± 0.87
31.6228 µM | -0.8 ± 0.37
100 µM | 0.0978 ± 0.62

Cc1cccc2ccccc12 [1-Methylnaphthalene]
Conditions | LDH release cytotoxicity [%]
0.031623 µM | -2.15 ± 0.06
0.1 µM | -2.7 ± 0.83
0.316228 µM | -2.77 ± 1.2
1 µM | -3.13 ± 0.52
3.16228 µM | -2.9 ± 0.43
10 µM | -2.97 ± 0.64
31.6228 µM | -1.66 ± 0.63
100 µM | 13.3 ± 7.7

COC(=O)c1ccccc1N [Methyl 2-aminobenzoate]
Conditions | LDH release cytotoxicity [%]
0.03162 µM | -1.17 ± 0.31
0.1 µM | 0.00334 ± 0.73
0.3162278 µM | 0.277 ± 0.2
1 µM | -0.0267 ± 0.46
3.16228 µM | 0.248 ± 0.12
10 µM | 0.495 ± 0.94
31.6228 µM | 0.0802 ± 0.54
100 µM | 1.28 ± 0.41

NC(=O)N(O)C1COc2cc(OCc3ccccc3)ccc21 (centres undefined)
Conditions | LDH release cytotoxicity [%]
0.02846 µM | -1.76 ± 0.2
0.09 µM | -2.99 ± 1.7
0.284605 µM | -1.03 ± 1.1
0.9 µM | -2.27 ± 0.15
2.84605 µM | -0.514 ± 0.72
9 µM | 0.238 ± 0.36
28.4605 µM | 3.46 ± 0.72
90 µM | 22.46 ± 0.1

C#CC1(O)CCC2C3CCC4=CC(=O)CCC4C3CCC21C (centres undefined) [Norethindrone]
Conditions | LDH release cytotoxicity [%]
0.03162 µM | -0.43 ± 0.47
0.1 µM | 0.00115 ± 0.14
0.3162278 µM | -0.373 ± 0.45
1 µM | -0.047 ± 0.53
3.16228 µM | 0.727 ± 1
10 µM | 0.906 ± 1.7
31.6228 µM | 2.7 ± 1.3
100 µM | 2.69 ± 0.34

O=C(O)CCCOc1ccc(Cl)cc1Cl [2,4-Dichlorophenoxybutyric acid]
Conditions | LDH release cytotoxicity [%]
0.03162 µM | -2.25 ± 0.88
0.1 µM | -0.951 ± 0.37
0.3162278 µM | -1.77 ± 0.11
1 µM | -1.33 ± 0.28
3.16228 µM | -1.43 ± 0.78
10 µM | -0.351 ± 0.14
31.6228 µM | -1.14 ± 0.056
100 µM | 0.81 ± 0.16
